Results: patent US10208034B2, “Quinoline derivative” (ONO PHARMACEUTICAL CO., LTD., priority 2014, dated 2019)

Assays:
[1] = target: T1, Axl enzyme (Homo sapiens, UniProt P30530); experiment: Measurement of Axl inhibitory activity (LanthaScreen TR-FRET, in vitro test); type: biochemical; conditions: Fluorescein-Poly GT substrate
T1 sequence (P30530 26-894): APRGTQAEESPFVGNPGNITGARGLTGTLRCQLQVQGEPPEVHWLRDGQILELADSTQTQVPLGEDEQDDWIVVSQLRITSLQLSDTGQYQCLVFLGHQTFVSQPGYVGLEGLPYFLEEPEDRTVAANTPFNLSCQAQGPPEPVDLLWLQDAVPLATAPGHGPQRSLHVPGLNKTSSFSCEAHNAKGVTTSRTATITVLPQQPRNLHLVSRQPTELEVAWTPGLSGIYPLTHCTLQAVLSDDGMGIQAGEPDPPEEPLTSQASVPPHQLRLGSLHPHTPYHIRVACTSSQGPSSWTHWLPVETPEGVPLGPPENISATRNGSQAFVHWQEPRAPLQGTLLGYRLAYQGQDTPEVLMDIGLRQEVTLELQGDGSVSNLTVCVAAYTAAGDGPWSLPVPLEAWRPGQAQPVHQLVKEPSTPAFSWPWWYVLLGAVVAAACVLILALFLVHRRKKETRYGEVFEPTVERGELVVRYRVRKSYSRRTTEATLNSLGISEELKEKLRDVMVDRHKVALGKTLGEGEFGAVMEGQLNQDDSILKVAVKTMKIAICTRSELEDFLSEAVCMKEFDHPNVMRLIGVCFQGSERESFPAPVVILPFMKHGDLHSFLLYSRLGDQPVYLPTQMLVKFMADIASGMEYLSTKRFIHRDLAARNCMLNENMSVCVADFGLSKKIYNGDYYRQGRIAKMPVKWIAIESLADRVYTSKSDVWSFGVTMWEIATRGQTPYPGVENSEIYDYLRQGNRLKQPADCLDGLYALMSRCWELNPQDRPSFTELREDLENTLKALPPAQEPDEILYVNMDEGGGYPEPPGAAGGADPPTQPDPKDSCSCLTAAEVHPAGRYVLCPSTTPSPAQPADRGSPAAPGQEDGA
Experimental: Axl enzyme inhibitory activity was measured by using LanthaScreen (registered trademark) system (Invitrogen) based on the attached instruction. The reagents used are shown below.
Reaction buffer solution: a solution containing 50 mmol/L HEPES (pH7.5), 0.01% Brij35, 10 mmol/L MgCl2 and 1 mmol/L EGTA was prepared by using purified water.
Test substance solution: a solution containing a test compound of 5-fold concentration with respect to the final concentration was prepared by 20-fold diluting a DMSO solution of test compound of each concentration with the reaction buffer solution.
Enzyme solution: a solution containing 400 ng/mL Axl enzyme was prepared by using the reaction buffer solution.
Substrate solution: a solution containing 45 μmol/L ATP and 500 nmol/L Fluorescein-Poly GT (Invitrogen) was prepared by using the reaction buffer solution.
Detection solution: a solution containing 20 mM EDTA and 4 nM PY20 (Invitrogen) was prepared by using Dilution B (Invitrogen).
A 10 mmol/L DMSO solution of the test compound was dispensed into a 96-well plate (Nunc), and, furthermore, a 3-fold dilution series was prepared using DMSO. In each well of the 96-well plate for measurement, 5 μL each of the reaction buffer solution containing DMSO was added to a Blank group and a medium group, and 5 μL of the test substance solution was added to the test substance group, respectively. Next, 10 μL/well of the reaction buffer solution was added to the Blank group, and 10 μL/well each of the enzyme solution was added to the medium group and the test compound group, followed by stirring at room temperature for 10 min. After the completion of stirring, 10 μL each of the substrate solution was added into each well, followed by stirring at room temperature with light shielded for one hour. After the completion of reaction, 25 μL each of the detection solution was added to each well, and stood still at room temperature with light shielded for 30 min. After standing sill, fluorescence intensity at 520 nm and 495 nm at the time of irradiation with exciting light of 340 nm was measured by using Analyst GT (Molecular Devices). The phosphorylation of the artificial substrate was quantified by Time-resolved Fluorescence Resonance Energy Transfer (TR-FRET). TR-FRET ratio was calculated by dividing 520 nm fluorescence signal by 495 nm fluorescence signal for each well, and the inhibition rate (%) in the test compound group was calculated based on the following mathematical formula. Inhibition rate (%)=[1−(TR-FRET ratio of test compound group−A)/(B−A)×100 [Math. 1] A: average value of TR-FRET ratios of Blank group B: average value of TR-FRET ratios of medium group
Values of 50% inhibition rate (IC50 values) of the test compound were calculated from the inhibition curve based on the inhibition rate of the test compounds in each concentration.

[2] = target: T2, Ba/F3 Axl (Homo sapiens, UniProt P30530); experiment: Proliferation suppression rate using mouse pro-B cell line (Ba/F3 Axl) stably expressing Axl (CellTiter-Glo); type: cell-based; conditions: Ba/F3 Axl cells, 48 hours, read-out: IC50 value of proliferation suppression, Ba/F3 Axl
T2 sequence (P30530 1-894): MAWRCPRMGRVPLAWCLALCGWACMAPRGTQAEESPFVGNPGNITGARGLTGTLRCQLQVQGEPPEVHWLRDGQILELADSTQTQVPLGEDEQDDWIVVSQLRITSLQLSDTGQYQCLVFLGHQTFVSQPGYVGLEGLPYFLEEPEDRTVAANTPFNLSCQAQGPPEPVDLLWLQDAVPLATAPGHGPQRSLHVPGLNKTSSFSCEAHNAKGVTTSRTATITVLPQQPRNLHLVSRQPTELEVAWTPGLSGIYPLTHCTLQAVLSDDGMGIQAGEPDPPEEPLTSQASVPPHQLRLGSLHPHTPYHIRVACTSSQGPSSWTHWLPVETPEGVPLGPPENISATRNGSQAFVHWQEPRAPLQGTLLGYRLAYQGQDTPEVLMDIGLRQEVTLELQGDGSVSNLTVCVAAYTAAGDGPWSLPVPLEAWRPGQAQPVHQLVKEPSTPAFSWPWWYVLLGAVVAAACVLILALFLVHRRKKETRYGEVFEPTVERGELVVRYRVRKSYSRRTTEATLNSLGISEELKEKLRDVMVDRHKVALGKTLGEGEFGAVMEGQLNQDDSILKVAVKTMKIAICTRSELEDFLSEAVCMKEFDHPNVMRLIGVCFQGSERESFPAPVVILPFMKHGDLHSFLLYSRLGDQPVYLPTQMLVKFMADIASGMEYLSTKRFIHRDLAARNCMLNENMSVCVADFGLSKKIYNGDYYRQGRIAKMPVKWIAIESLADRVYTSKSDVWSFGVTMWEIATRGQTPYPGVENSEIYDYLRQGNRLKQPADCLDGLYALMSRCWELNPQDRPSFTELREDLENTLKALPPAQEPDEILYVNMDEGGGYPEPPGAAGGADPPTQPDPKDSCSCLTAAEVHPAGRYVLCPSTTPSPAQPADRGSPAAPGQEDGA
Experimental: A 0.1 mmol/L DMSO solution of the test compound was dispensed into a 96-well plate, and a 3-fold dilution series was prepared using DMSO. DMSO solutions of test compounds, having various concentrations, were further 500-fold diluted with a RPMI1640 medium (containing 10% HI-FBS, 1% penicillin) and a diluted solution of the test compound having […] with respect to the final concentration was prepared. In each well of the 96-well plate (BD Biosciences) for measurement, 50 μL of a RPMI medium was added to the Blank group, 50 μL of a RPMI medium containing 0.2% DMSO was added to the medium group, and 50 μL of the diluted solution of the test compound was added to the test compound group, respectively. Ba/F3 Axl was diluted with a medium to have a density of 2×10^5 cells/mL to prepare a cell suspension. In each well of the 96-well plate for measurement, 50 μL each of the RPMI medium was added to the Blank group, and 50 μL each of the cell suspension to the medium group and the test compound group, respectively, and the groups were stood still at 37° C. at 5% CO2 for 48 hours. After standing still, Relative Light Unit (RLU) was measured by using CELLTITER-GLO (registered trademark) LUMINESCENT CELL VIABILITY ASSAY (Promega). The measurement was carried out according to the attached instruction. To each well, 100 μL each of light-emitting solution was added. The plate was stirred at room temperature for 3 min and then stool still at room temperature with light shielded for 10 min, and RLU was measured by using Microplate Reader (SpectraMax M5e, Molecular Devices). The average values of RLU of the Blank group and the medium group were respectively calculated, and the proliferation suppression rate of the test compound group was calculated. Proliferation suppression rate (%)={1−(RLU of test compound group−A)/(B−A)}×100 [Math. 2] A: average value of RLU of Blank group B: average value of RLU of medium group
A value of 50% inhibition rate (IC50 value) of the test compound was calculated from the inhibition curve based on the inhibition rate in each concentration of the test compound.

[3] = target: KDR kinase (Homo sapiens, UniProt P35968); experiment: Evaluation of kinase selectivity (KDR kinase IC50 versus Axl IC50, in vitro test); type: biochemical; conditions: Axl selective inhibitory activity with respect to KDR kinase, ratio of IC50 values
Experimental: Similar to Biological Example 1, values of 50% inhibition rate (IC50 value) with respect to the KDR kinase of the test compound was measured. The Axl selective inhibitory activity of the test compound with respect to KDR kinase was calculated based on the above-mentioned ratio of the IC50 values. As the test compounds, for the compounds of the present invention, the compounds of Examples 21, 42, 66, and 28 were used, and for the comparative compounds, the compound of Example 74 (Comparative compound B) and the compound of Example 92 (Comparative compound C) described in Patent Literature 5, having the following structure, were used.

KDR kinase, sequence (P35968 20-1356): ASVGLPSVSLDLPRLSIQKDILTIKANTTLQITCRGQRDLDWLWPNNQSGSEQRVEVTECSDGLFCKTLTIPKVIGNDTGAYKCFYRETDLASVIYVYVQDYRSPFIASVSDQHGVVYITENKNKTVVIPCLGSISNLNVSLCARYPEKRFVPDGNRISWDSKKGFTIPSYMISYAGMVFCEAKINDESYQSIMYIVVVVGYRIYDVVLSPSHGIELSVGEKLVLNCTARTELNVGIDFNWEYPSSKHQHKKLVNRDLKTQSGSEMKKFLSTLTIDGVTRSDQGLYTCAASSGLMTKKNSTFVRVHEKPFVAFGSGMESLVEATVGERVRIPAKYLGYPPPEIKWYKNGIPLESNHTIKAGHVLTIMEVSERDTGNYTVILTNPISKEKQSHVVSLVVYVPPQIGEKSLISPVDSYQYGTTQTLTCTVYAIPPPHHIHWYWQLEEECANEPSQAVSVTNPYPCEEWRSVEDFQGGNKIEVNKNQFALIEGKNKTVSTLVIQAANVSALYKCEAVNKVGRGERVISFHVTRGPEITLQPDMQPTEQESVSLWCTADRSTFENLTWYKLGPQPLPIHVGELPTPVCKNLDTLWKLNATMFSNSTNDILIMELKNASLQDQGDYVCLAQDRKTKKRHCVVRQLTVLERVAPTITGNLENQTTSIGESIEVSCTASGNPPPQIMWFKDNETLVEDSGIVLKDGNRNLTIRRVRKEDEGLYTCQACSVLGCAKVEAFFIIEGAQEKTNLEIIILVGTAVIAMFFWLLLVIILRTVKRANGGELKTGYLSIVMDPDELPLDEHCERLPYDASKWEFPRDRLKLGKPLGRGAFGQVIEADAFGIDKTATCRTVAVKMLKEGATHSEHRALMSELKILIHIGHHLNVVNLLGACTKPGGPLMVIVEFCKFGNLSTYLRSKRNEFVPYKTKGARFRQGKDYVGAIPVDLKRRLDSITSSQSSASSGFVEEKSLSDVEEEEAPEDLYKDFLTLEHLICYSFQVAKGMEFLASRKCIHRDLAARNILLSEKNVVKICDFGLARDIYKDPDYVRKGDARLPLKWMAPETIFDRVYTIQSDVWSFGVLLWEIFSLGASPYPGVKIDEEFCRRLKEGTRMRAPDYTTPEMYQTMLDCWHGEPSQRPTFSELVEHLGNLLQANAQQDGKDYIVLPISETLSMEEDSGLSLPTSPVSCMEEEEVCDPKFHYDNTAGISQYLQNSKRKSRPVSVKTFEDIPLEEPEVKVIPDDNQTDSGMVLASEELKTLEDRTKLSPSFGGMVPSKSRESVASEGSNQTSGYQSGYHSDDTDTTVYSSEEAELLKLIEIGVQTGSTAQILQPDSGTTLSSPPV

| SMILES | IC50 [1] [nM] | GI50 [2] [nM] | KDR [IC50]/Ax1 [IC50] [3] |
| --- | --- | --- | --- |
| COc1cc2nccc(Oc3ccc(NC(=O)c4cc5ccccc5[nH]c4=O)cc3)c2cc1OC [Comparative compound A, reference compound] | > 10000 | > 10000 | – |
| COc1cc2c(Oc3ccc(NC(=O)c4cccc5cccnc45)cc3F)ccnc2cc1OCCCN1CCOCC1 [Comparative compound B, reference compound] | – | – | about 0.2 times |
| COc1cc2c(Oc3ccc(NC(=O)c4ccnn(-c5ccc(F)cc5)c4=O)cn3)ccnc2cc1OCCCN1CCOCC1 [Comparative compound C, reference compound] | – | – | about 28 times |

More lines, now with the values ahead:

| IC50 [1] [nM] | GI50 [2] [nM] | KDR [IC50]/Ax1 [IC50] [3] | SMILES |
| --- | --- | --- | --- |
| 1.5 | 0.47 | – | CC#CC(=O)N1CCc2cc(C(=O)Nc3ccc(Oc4ccnc5cc(OC)c(OC)cc45)cn3)c(=O)n(-c3ccccc3)c2C1 [Example 36, 7-(2-butynoyl)-N-{5-[(6,7-dimethoxy-4-quinolinyl)oxy]-2-pyridinyl}-2-oxo-1-phenyl-1,2,5,6,7,8-hexahydro-1,7-naphthyridine-3-carboxamide] |
| 4 | 0.76 | – | COc1cc2nccc(Oc3ccc(NC(=O)c4cc5ccc(N)cc5n(-c5ccccc5)c4=O)nc3)c2cc1OC [Example 73, 7-amino-N-{5-[(6,7-dimethoxy-4-quinolinyl)oxy]-2-pyridinyl}-2-oxo-1-phenyl-1,2-dihydro-3-quinolinecarboxamide] |
